From patent US20230019491A1, “PYRIMIDINE TBK/IKKe INHIBITOR COMPOUNDS AND USES THEREOF” (Merck Patent GmbH, priority 2017, published 2023)

Legend:
TBK1 = target: T1, TBK1 (Homo sapiens, UniProt Q9UHD2); experiment: TBK biochemical assay; settings: 10 point 1:4 dose response, 30 uM top concentration, 90 min at 25° C., LabChip EZ Reader II; read-out: TBK1_IC50
T1 sequence (Q9UHD2 1-729): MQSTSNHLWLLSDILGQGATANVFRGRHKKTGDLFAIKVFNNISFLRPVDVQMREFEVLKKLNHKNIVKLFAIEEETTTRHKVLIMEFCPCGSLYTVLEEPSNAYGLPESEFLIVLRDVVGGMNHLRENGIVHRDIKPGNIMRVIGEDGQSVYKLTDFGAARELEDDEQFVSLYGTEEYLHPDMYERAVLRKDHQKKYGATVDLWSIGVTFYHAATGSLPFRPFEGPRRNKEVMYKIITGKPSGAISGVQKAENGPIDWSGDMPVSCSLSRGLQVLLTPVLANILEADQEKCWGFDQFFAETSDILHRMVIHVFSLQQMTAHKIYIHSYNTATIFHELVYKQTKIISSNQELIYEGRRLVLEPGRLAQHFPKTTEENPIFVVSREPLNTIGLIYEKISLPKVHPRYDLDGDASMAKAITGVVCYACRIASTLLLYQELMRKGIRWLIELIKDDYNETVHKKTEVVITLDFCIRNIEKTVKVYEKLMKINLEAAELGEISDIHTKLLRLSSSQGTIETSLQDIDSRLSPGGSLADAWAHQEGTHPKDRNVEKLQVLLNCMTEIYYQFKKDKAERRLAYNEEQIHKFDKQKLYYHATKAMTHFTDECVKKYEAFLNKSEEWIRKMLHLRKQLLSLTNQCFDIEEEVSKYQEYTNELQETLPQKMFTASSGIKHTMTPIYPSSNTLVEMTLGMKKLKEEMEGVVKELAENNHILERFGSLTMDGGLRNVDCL
Outline: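 Read-out was a Caliper LabChip mobility-shift assay, run after a 90-min, 25 °C reaction of TBK1 with substrate and compounds, quenched with stop buffer. Control wells received staurosporine at 10 uM final.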

IKKε = target: T2, IKKε (Homo sapiens, UniProt Q14164); experiment: IKKε biochemical assay; settings: 10 point 1:4 dose response, 30 uM top concentration, 90 min at 25° C., LabChip EZ Reader II; read-out: IKKε_IC50
T2 sequence (Q14164 1-716): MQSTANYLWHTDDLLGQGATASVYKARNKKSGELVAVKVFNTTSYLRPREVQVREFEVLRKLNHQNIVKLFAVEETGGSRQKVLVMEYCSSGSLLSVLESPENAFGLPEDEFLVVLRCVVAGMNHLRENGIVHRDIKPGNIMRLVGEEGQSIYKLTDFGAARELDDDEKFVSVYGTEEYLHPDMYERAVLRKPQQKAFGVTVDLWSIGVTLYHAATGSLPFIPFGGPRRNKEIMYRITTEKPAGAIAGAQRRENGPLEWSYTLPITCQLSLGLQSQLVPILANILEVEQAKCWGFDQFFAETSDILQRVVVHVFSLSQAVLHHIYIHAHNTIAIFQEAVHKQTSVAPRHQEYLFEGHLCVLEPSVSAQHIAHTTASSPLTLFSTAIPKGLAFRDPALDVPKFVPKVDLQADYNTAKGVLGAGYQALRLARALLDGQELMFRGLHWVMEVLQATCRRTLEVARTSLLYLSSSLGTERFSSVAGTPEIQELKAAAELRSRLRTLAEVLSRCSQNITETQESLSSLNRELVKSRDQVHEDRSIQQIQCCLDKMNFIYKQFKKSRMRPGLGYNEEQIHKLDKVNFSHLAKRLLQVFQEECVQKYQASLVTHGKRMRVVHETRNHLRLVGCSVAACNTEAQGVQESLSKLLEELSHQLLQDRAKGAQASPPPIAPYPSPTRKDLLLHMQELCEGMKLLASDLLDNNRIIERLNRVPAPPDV
Outline: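 Mobility-shift LabChip read-out followed a 90 min, 25° C. reaction of IKKε with substrate and test compound, with DMSO held at 1% final. Reactions were ended with stop buffer. Wells with 10 uM final staurosporine defined complete inhibition, and DMSO-only wells the uninhibited level.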

| Structure (SMILES) | IC50 (TBK1) [nM] | IC50 (IKKε) [nM] |
| --- | --- | --- |
| COc1nc(Nc2nccc(-c3ccc(OC4CN(C(=O)[C@H](C)O)C4)c(C#N)c3)n2)ccc1N1CCN(C2COC2)CC1 [Example 175, 2-([1-[(2S)-2-hydroxypropanoyl]azetidin-3-yl]oxy)-5-[2-([6-methoxy-5-[4-(oxetan-3-yl)piperazin-1-yl]pyridin-2-yl]amino)pyrimidin-4-yl]benzonitrile] | 100 to 1000 | 100 to 1000 |
| COc1nc(Nc2nccc(-c3ccc(OC4CN(C(=O)[C@@H](C)O)C4)c(C#N)c3)n2)ccc1N1CCN(C2COC2)CC1 [Example 176, 2-([1-[(2R)-2-hydroxypropanoyl]azetidin-3-yl]oxy)-5-[2-([6-methoxy-5-[4-(oxetan-3-yl)piperazin-1-yl]pyridin-2-yl]amino)pyrimidin-4-yl]benzonitrile] | 100 to 1000 | 1000 to 5000 |
| C[C@@H](O)C(=O)N1CCC(Oc2ccc(-c3ccnc(Nc4ccc(N5CCN(C6COC6)CC5)cc4)n3)cc2C#N)C1 (stereo partly drawn) [Example 179, 2-([1-[(2R)-2-hydroxypropanoyl]pyrrolidin-3-yl]oxy)-5-[2-([4-[4-(oxetan-3-yl)piperazin-1-yl]phenyl]amino)pyrimidin-4-yl]benzonitrile] | < 100 | < 100 |
| COc1nc(Nc2nccc(-c3ccc(OC4CCNC4)c(C#N)c3)n2)ccc1N1CCN(C2COC2)CC1 (stereo not shown) [Example 182, 5-[2-([6-methoxy-5-[4-(oxetan-3-yl)piperazin-1-yl]pyridin-2-yl]amino)pyrimidin-4-yl]-2-(pyrrolidin-3-yloxy)benzonitrile] | < 100 | < 100 |
| COc1nc(Nc2nccc(-c3ccc(OC4CCN(C(=O)[C@H](C)O)C4)c(C#N)c3)n2)ccc1N1CCN(C2COC2)CC1 (stereo partly drawn) [Example 183, 2-([1-[(2S)-2-hydroxypropanoyl]pyrrolidin-3-yl]oxy)-5-[2-([6-methoxy-5-[4-(oxetan-3-yl)piperazin-1-yl]pyridin-2-yl]amino)pyrimidin-4-yl]benzonitrile] | < 100 | < 100 |
| COc1nc(Nc2nccc(-c3ccc(OC4CCN(C(=O)[C@@H](C)O)C4)c(C#N)c3)n2)ccc1N1CCN(C2COC2)CC1 (stereo partly drawn) [Example 184, 2-([1-[(2R)-2-hydroxypropanoyl]pyrrolidin-3-yl]oxy)-5-[2-([6-methoxy-5-[4-(oxetan-3-yl)piperazin-1-yl]pyridin-2-yl]amino)pyrimidin-4-yl]benzonitrile] | 100 to 1000 | 100 to 1000 |
| COc1nc(Nc2nccc(-c3ccc(OC4CCNCC4)c(C#N)c3)n2)ccc1N1CCN(C2COC2)CC1 [Example 185, 5-[2-({6-methoxy-5-[4-(oxetan-3-yl)piperazin-1-yl]pyridin-2-yl}amino)pyrimidin-4-yl]-2-(piperidin-4-yloxy)benzonitrile] | < 100 | < 100 |
| COc1nc(Nc2nccc(-c3ccc(OC4CCN(C(=O)CO)CC4)c(C#N)c3)n2)ccc1N1CCN(C2COC2)CC1 [Example 186, 2-(1-(2-hydroxyacetyl)piperidin-4-yloxy)-5-(2-(6-methoxy-5-(4-(oxetan-3-yl)piperazin-1-yl)pyridin-2-ylamino)pyrimidin-4-yl)benzonitrile] | < 100 | < 100 |
| COc1nc(Nc2nccc(-c3ccc(OC4CCN(C(=O)[C@H](C)O)CC4)c(C#N)c3)n2)ccc1N1CCN(C2COC2)CC1 [Example 187, 2-([1-[(2S)-2-hydroxypropanoyl]piperidin-4-yl]oxy)-5-[2-([6-methoxy-5-[4-(oxetan-3-yl)piperazin-1-yl]pyridin-2-yl]amino)pyrimidin-4-yl]benzonitrile] | < 100 | < 100 |
| COc1nc(Nc2nccc(-c3ccc(O[C@H]4CCN(C(=O)[C@@H](C)O)C[C@@H]4F)c(C#N)c3)n2)ccc1C1CCN(C2COC2)CC1 [Example 188, 2-[(3S,4S)-3-Fluoro-1-((R)-2-hydroxy-propionyl)-piperidin-4-yloxy]-5-[2-(2-methoxy-1′-oxetan-3-yl-1′,2′,3′,4′,5′,6′-hexahydro-[3,4′]bipyridinyl-6-ylamino)-pyrimidin-4-yl]-benzonitrile] | < 100 | < 100 |
| COc1nc(Nc2nccc(-c3ccc(O[C@H]4CCN(C(=O)[C@H](C)O)C[C@@H]4F)c(C#N)c3)n2)ccc1C1CCN(C2COC2)CC1 [Example 189, 2-[(3S,4S)-3-Fluoro-1-((S)-2-hydroxy-propionyl)-piperidin-4-yloxy]-5-[2-(2-methoxy-1′-oxetan-3-yl-1′,2′,3′,4′,5′,6′-hexahydro-[3,4′]bipyridinyl-6-ylamino)-pyrimidin-4-yl]-benzonitrile] | < 100 | < 100 |
| COc1nc(Nc2nccc(-c3ccc(O[C@H]4CCN(C(=O)C(C)O)C[C@H]4F)c(C#N)c3)n2)ccc1N1CCN(C2COC2)CC1 (stereo partly drawn) [Example 190, 2-[[(3R,4S)-3-fluoro-1-(2-hydroxypropanoyl)piperidin-4-yl]oxy]-5-[2-([6-methoxy-5-[4-(oxetan-3-yl)piperazin-1-yl]pyridin-2-yl]amino)pyrimidin-4-yl]benzonitrile] | < 100 | < 100 |
| COc1nc(Nc2nccc(-c3ccc(O[C@H]4CCN(C(=O)[C@H](C)O)C[C@H]4F)c(C#N)c3)n2)ccc1C1CCN(C2COC2)CC1 [Example 191, 2-[(3R,4S)-3-Fluoro-1-((S)-2-hydroxy-propionyl)-piperidin-4-yloxy]-5-[2-(2-methoxy-1′-oxetan-3-yl-1′,2′,3′4′,5′,6′-hexahydro-[3,4′]bipyridinyl-6-ylamino)-pyrimidin-4-yl]-benzonitrile] | < 100 | < 100 |
| COc1nc(Nc2nccc(-c3ccc(O[C@@H]4CCN(C(=O)[C@H](C)O)C[C@H]4F)c(C#N)c3)n2)ccc1C1CCN(C2COC2)CC1 [Example 192, 2-[(3R,4R)-3-Fluoro-1-((S)-2-hydroxy-propionyl)-piperidin-4-yloxy]-5-[2-(2-methoxy-1′-oxetan-3-yl-1′,2′,3′,4′,5′,6′-hexahydro-[3,4′]bipyridinyl-6-ylamino)-pyrimidin-4-yl]-benzonitrile] | < 100 | < 100 |
| COc1nc(Nc2nccc(-c3ccc(O[C@@H]4CCN(C(=O)[C@@H](C)O)C[C@H]4F)c(C#N)c3)n2)ccc1C1CCN(C2COC2)CC1 [Example 193, 2-[(3R,4R)-3-Fluoro-1-((R)-2-hydroxy-propionyl)-piperidin-4-yloxy]-5-[2-(2-methoxy-1′-oxetan-3-yl-1′,2′,3′,4′,5′,6′-hexahydro-[3,4′]bipyridinyl-6-ylamino)-pyrimidin-4-yl]-benzonitrile] | 100 to 1000 | 100 to 1000 |
| COc1nc(Nc2nccc(-c3ccc(O[C@@H]4CCN(C(=O)[C@H](C)O)C[C@@H]4F)c(C#N)c3)n2)ccc1C1CCN(C2COC2)CC1 [Example 194, 2-[(3S,4R)-3-Fluoro-1-((S)-2-hydroxy-propionyl)-piperidin-4-yloxy]-5-[2-(2-methoxy-1′-oxetan-3-yl-1′,2′,3′,4′,5′,6′-hexahydro-[3,4′]bipyridinyl-6-ylamino)-pyrimidin-4-yl]-benzonitrile] | < 100 | < 100 |
| COc1nc(Nc2nccc(-c3ccc(O[C@@H]4CCN(C(=O)[C@@H](C)O)C[C@@H]4F)c(C#N)c3)n2)ccc1C1CCN(C2COC2)CC1 [Example 195, 2-[(3S,4R)-3-Fluoro-1-((R)-2-hydroxy-propionyl)-piperidin-4-yloxy]-5-[2-(2-methoxy-1′-oxetan-3-yl-1′,2′,3′,4′,5′,6′-hexahydro-[3,4′]bipyridinyl-6-ylamino)-pyrimidin-4-yl]-benzonitrile] | 100 to 1000 | 100 to 1000 |
